Reference: US20240240150A1, “SPONTANEOUSLY BEATING CARDIAC ORGANOID CONSTRUCTS AND INTEGRATED BODY-ON-CHIP APPARATUS CONTAINING THE SAME” (Wake Forest University Health Sciences, priority 2015, published 2024)
Like-named read-outs stand apart in the source and are kept apart here.

Columns and labels:
[1] = system: liver constructs (bioprinted liver organoids); test: On-chip liver construct viability by LIVE/DEAD staining after APAP / NAC; format: cell-based; conditions: day 14
Protocol: (§1) Liver construct synthetic functionality, response to acetaminophen insult, and intervention with N-acetyl-L-cysteine. To assess the response of the liver organoid system to toxic drug insult, acetaminophen was employed. Liver organoids were cultured in microreactors as described before for 14 days. Media samples were collected on days 3, 6, 10, and 14. After media collection on day 6, 1 set of organoids continued with normal media, 1 set of organoids were treated with 1 mM APAP, and 1 set of organoids were treated with 10 mM APAP. To assess the effectiveness of a countermeasure treatment to be used in the liver organoid system, N-acetyl-L-cysteine was explored as a clinically relevant treatment against APAP-induced toxicity. This final set of organoids was treated with 10 mM APAP and 20 mM N-acetyl-L-cysteine. During media changes, groups receiving the drug treatment received fresh HCM also containing the appropriate drug concentration.
(§2) For assessment of liver organoid albumin and urea secretion under baseline conditions as well as during exposure to APAP, collected media aliquots were analyzed using a Human Albumin ELISA assay (Alpha Diagnostic International) and the amount of secreted urea in the collected media was determined using a Urea colorimetric assay (BioAssay Systems). For viability assessment, organoids were removed immediately after the final media collection time point (day 14) for staining by LIVE/DEAD viability/cytotoxicity kits (Life Technologies). Staining consisted of incubation in 2 uM calcein AM (stains live cells green) and 4 uM EthD-1 (stains dead cells red) in a 1:1 PBS:HCM solution. […] Additionally, media samples were analyzed for presence of lactate dehydrogenase (LDH), an enzyme that is released from cells after toxicity causes cell membrane rupture, using a Lactate Dehydrogenase Assay Kit (Abcam), and for α-GST, a hepatocyte-specific enzyme also released from cells after exposure to toxicity, using an α-GST Assay Kit (Oxford Biomedical Research).

[2] = system: liver constructs (bioprinted liver organoids); test: On-chip liver construct albumin secretion (Human Albumin ELISA); format: cell-based; conditions: for albumin levels vs 0 mM control: administered after day 6
Protocol: as §1
For assessment of liver organoid albumin and urea secretion under baseline conditions as well as during exposure to APAP, collected media aliquots were analyzed using a Human Albumin ELISA assay (Alpha Diagnostic International) and the amount of secreted urea in the collected media was determined using a Urea colorimetric assay (BioAssay Systems). For viability assessment, organoids were removed immediately after the final media collection time point (day 14) for staining by LIVE/DEAD viability/cytotoxicity kits (Life Technologies). Staining consisted of incubation in 2 uM calcein AM (stains live cells green) and 4 uM EthD-1 (stains dead cells red) in a 1:1 PBS:HCM solution. Following staining, organoids were washed in PBS, fixed in 4% PFA, transferred to PBS, and imaged using macro-confocal microscopy (Leica TCS LSI). Additionally, media samples were analyzed for presence of lactate dehydrogenase (LDH), an enzyme that is released from cells after toxicity causes cell membrane rupture, using a Lactate Dehydrogenase Assay Kit (Abcam), and for α-GST, a hepatocyte-specific enzyme also released from cells after exposure to toxicity, using an α-GST Assay Kit (Oxford Biomedical Research).

[3] = system: liver constructs (bioprinted liver organoids); test: On-chip liver construct urea secretion (colorimetric assay); format: cell-based, human
Protocol: as §1, §2

[4] = system: liver constructs (bioprinted liver organoids); test: On-chip liver construct lactate dehydrogenase release into media; format: cell-based, human; conditions: for LDH concentration in the media: day 10
cardiac organoids [5] = test: Cardiac organoid beating rate response to drugs (onboard camera / microscope); format: cell-based, human
Description: Cardiac construct baseline function monitoring and beat rate response to drugs. […] First the cover of the webcam is disassembled to retrieve the CMOS sensor. The lens of the webcam is then detached from its initial location, flipped, and integrated back to the holder to convert it into a magnifying lens. A base was then constructed for the mini-microscope to fit onto the bottom of the bioreactors. The base consisted of a dual-layer structure of PMMA sheets (⅛″ Thick, 12″×12″, McMaster 8505K11) cut into the dimensions of the bioreactors using a laser cutter (VLS 2.30 Desktop Laser System, Universal Laser Systems). Using 4 sets of screw/bolts, the CMOS module was tightly clamped in between a pair of PMMA structures. Additional 4 sets of screw/bolts were further mounted at the corners of the structures to function as the focus knobs. Only very minor alteration to the bioreactor itself was needed, i.e., 4 extra holes were drilled on the lower PMMA board to fit the imager at the bottom. During culture of cardiac constructs, videos were captured to analyze cardiac organoid beating rates. Video files were analyzed using custom written MatLab code with a series of MatLab functions. The software created a reference frame, based on the first frame of the video, and compared pixels in each subsequent frame, determining which pixels represented movement over time. The moving pixels in each frame were then used to generate a black and white pixilated representation of beat behavior, allowing visualization of beat propagation, and generation a plot showing the number of moving pixels versus time, allowing determination of beating rates.

[6] = system: liver constructs (bioprinted liver organoids); test: On-chip liver construct alpha-GST release into media; format: cell-based, human; conditions: 10 mM APAP + 20 mM NAC
Protocol: Liver construct synthetic functionality, response to acetaminophen insult, and intervention with N-acetyl-L-cysteine. To assess the response of the liver organoid system to toxic drug insult, acetaminophen was employed. Liver organoids were cultured in microreactors as described before for 14 days. Media samples were collected on days 3, 6, 10, and 14. After media collection on day 6, 1 set of organoids continued with normal media, 1 set of organoids were treated with 1 mM APAP, and 1 set of organoids were treated with 10 mM APAP. […]
as §2, with “Systems).” for “Systems). For viability assessment, organoids were removed immediately after the final media collection time point (day 14) for staining by LIVE/DEAD viability/cytotoxicity kits (Life Technologies). Staining consisted of incubation in 2 uM calcein AM (stains live cells green) and 4 uM EthD-1 (stains dead cells red) in a 1:1 PBS:HCM solution.”

[7] = system: bioprinted cardiac tissue constructs (rat neonatal cardiomyocytes); test: Bioprinted rat cardiac tissue constructs, response to cardiac drugs; format: cell-based
Description: In this study, 3D bioprinting was applied to fabricate functional and contractile cardiac tissue constructs. Rat neonatal heart tissues were obtained to isolate cardiomyocytes, and the cells were suspended in a fibrin-based hydrogel bioink. Cell-laden hydrogel was printed through a 300-micron nozzle by pneumatic pressure. […] Moreover, tissue development of the printed cardiac tissue could accelerate by Notch signal blockade.

cardiac organoids [8] = conditions: for increase in beating rate: 0.5 μM
Protocol: Integrated organoid system and integrated response to drugs. To evaluate how the combination of both organoid types together impact drug response, epinephrine and propranolol were tested independently and jointly. In the independent scenario, organoid platforms were prepared in two groups: Group 1 consisted of a set of organoids comprised only of cardiac, with “blank” liver modules. Group 2 consisted of both cardiac and liver. However, it should be noted that cardiac and liver constructs were kept separate for the incubation period, while the drug was administered to the liver construct or “blank” liver module, after which the modules were joined for 30 minutes prior to cardiac beating rate assessment. Baseline cardiac organoid beating rates were determined in each group prior to drug administration. Then, the drugs—either 0.1 μM propranolol or 0.5 μM epinephrine—were administered, allowed to incubate for 1 hour, after which the modules were joined, and data was collected.

cardiac organoids [9] = system: cardiac organoids
Protocol: To test the integrated response of the liver and cardiac system to epinephrine and propranolol combinations, the experimental groups described above were prepared and the same protocol (individual unit incubation prior to joining of modules) was followed. However, the incubation period was lengthened to overnight (18 hours). Both Group 1 and Group 2 were administered 0.1 uM propranolol. After the incubation period, the modules were joined and 0.5 uM epinephrine was be administered to both groups. Additionally, in parallel, a Group 3 condition was employed, which mirrored Group 2, but used a 2D hepatocyte culture (1-2 million cells/well) instead of the liver construct as a 2D comparison.

liver organoids [10] = test: Troglitazone toxicity, organoid viability by CellTiter-Glo ATP assay; format: cell-based, human; conditions: liver organoids treated for 48 hours
Protocol: Organoid viability assays. Organoid viability was assessed by ATP production as a measure of metabolic activity as detailed in the following white paper^1. CellTiter-Glo assay (Promega) was used to measure ATP by transferring one organoid/well to a black, opaque 96-well plate (Corning). Blanks were included using HCM medium (Lonza) at 80 μl/well. 80 μl of prepared CellTiter-Glo buffer was added per well and plate was placed on shaker for 5 minutes to lyse cells, then further incubated for 15 minutes protected from light. Plate was read using plate reader (SpectraMax M5, Molecular Devices) with an integration time of 0.5 see/well. Sample time points were compared via two-sample unequal variance t-test. Live/dead stain was also used to assess viability. Organoids were washed in PBS and then stained with live/dead viability/cytotoxicity kit (Life Technologies): 2 μL/mL ethidium homodimer-1 and 0.5 μL/mL calcein AM (diluted in PBS) for 45 minutes at room temperature, protected from light. Organoids were transferred to a depression glass slide (Erie Scientific) and then imaged using TCS LSI macro confocal microscope with 5× macro objective (Leica).
Troglitazone toxicity. […] Organoid viability was measured using the CellTiter-Glo assay (Promega) as recorded as previously described.

liver organoids [11] = test: Phospholipid accumulation, HCS LipidTox Phospholipidosis Detection Stain; format: cell-based, human; conditions: 48 hour treatment, even with lower concentrations
Protocol: Accumulation of phospholipids within the organoids was imaged using the HCS LipidTox Phospholipidosis Detection Stain (Invitrogen). LipidTox reagent was added to medium at the same time as the troglitazone at a ratio of 1:500. Following 48 hour drug treatment, organoids were fixed in 4% paraformaldehyde (Sigma Aldrich), washed in PBS, and then transferred to a depression glass slide (Erie Scientific) for imaging using TCS LSI macro confocal with 5× macro objective (Leica).

CC(=O)Nc1ccc(O)cc1 [APAP, acetaminophen]
viability (ratio of live to dead cells, LIVE/DEAD) ([1]; 1 mM APAP): 30-50% | viability (LIVE/DEAD) ([1]; 10 mM APAP): few viable cells | albumin levels vs 0 mM control ([2]; 1 mM APAP): significantly decreased | albumin levels vs 0 mM control ([2]; 10 mM APAP): significantly decreased | albumin levels ([2]; 10 mM APAP, day 14): nearly immeasurable | urea levels ([3]; 1 mM and 10 mM APAP, after administration): drop in a dose dependent manner | LDH concentration in the media ([4]; 10 mM APAP): clear increase in LDH concentration | LDH levels ([4]; 10 mM APAP, day 14): drop down to baseline

CC(C)NCC(O)c1ccc(O)c(O)c1 (stereo not drawn) [Isoproterenol]
organoid beating rate (cardiac organoids [5]; 0.1 mM): increased organoid beating rate

CC(=O)N[C@@H](CS)C(=O)O [NAC, N-acetyl-L-cysteine]
viability (LIVE/DEAD), rescue from APAP ([1]; 10 mM APAP + 20 mM NAC): reduced the level of morbidity | albumin levels vs 10 mM APAP group ([2]; 10 mM APAP + 20 mM NAC): significantly greater than those of the 10 mM APAP treated group | urea levels vs 10 mM APAP ([3]; 10 mM APAP + 20 mM NAC): significantly greater than the 10 mM APAP urea levels | urea levels vs control organoids ([3]; 10 mM APAP + 20 mM NAC): not significantly different than the control organoids | LDH concentration in the media ([4]; 10 mM APAP + 20 mM NAC): almost identical to the control group | alpha-GST in media ([6]; day 10): about 6 ng/mL | alpha-GST in media ([6]; day 14): ~5 ng/mL

C[N+](C)(C)CCOC(N)=O [carbachol]
physiological responses (beating frequency and contraction forces) [7]: showed physiological responses

CNC[C@H](O)c1ccc(O)c(O)c1 [epinephrine]
concentration at which beating rate plateau is reached (cardiac organoids [5]): ≥ 5 µM | organoid beating rate, dose response (cardiac organoids [5]; 0, 0.1, 0.5, 5 and 50 uM): increased in a dose-dependent manner | increase in beating rate (cardiac organoids [8]; cardiac-only system): approximately 40% | increase in beating rate (cardiac organoids [8]; with liver component): ~30% | restoration of the epinephrine-induced increase in beat rate (cardiac organoids [9]; 0.5 μM epinephrine after 0.1 μM propranolol, 2D hepatocyte culture instead of liver construct): failed achieve any restoration | increase in BPM (cardiac organoids [9]; 0.5 μM epinephrine after 0.1 μM propranolol, Group 2, liver component added): 1.25 fold | response relative to control epinephrine-only response (cardiac organoids [9]; 0.5 μM epinephrine after 0.1 μM propranolol, Group 2 with 3D liver organoids): approximately 50% | increase in cardiac BPM (cardiac organoids [9]; 0.5 μM epinephrine, controls with no propranolol): 1.5 fold | physiological responses (beating frequency and contraction forces) [7]: showed physiological responses

CC(C)NCC(O)COc1cccc2ccccc12 (stereo not drawn) [propranolol]
prevention of epinephrine-induced increase in beating rate (cardiac organoids [5]; 0, 0.5, 5, 20 uM propranolol for 20 minutes, then 5 uM epinephrine): more effectively prevented epinephrine-induced increases in beating rates | decrease in beating rate (cardiac organoids [8]; 0.1 μM, cardiac-only system): ~10% | change in beating rate (cardiac organoids [8]; 0.1 μM, in the presence of the liver construct): no decrease in beating rate | block of beta-adrenergic effects of 0.5 μM epinephrine (cardiac organoids [9]; 0.1 μM propranolol, Group 1, no liver organoids): successfully blocked

C=C[C@H]1C[N@@]2CC[C@H]1C[C@@H]2[C@@H](O)c1ccnc2ccc(OC)cc12 [quinidine]
organoid beating rate (cardiac organoids [5]; 1 μM): slowed organoid beating rate

Cc1c(C)c2c(c(C)c1O)CCC(C)(COc1ccc(CC3SC(=O)NC3=O)cc1)O2 (stereo not drawn) [troglitazone]
viability (ATP quantification), dose-response (liver organoids [10]): decrease in viability as concentration of drug is increased | phospholipid accumulation (liver organoids [11]): Considerable phospholipid accumulation
